Assay results: publication PMC5819902, “Activation loop targeting strategy for design of receptor-interacting protein kinase 2 (RIPK2) inhibitors” (Bioorganic & Medicinal Chemistry Letters, 2018)

How the values were obtained:
Assay type in all cases: biochemical
[1] = target: T1, receptor-interacting protein kinase 2 (RIPK2) (Homo sapiens, UniProt O43353); experiment: in vitro enzyme inhibition, % inhibition at […]; conditions: 0.5 µM
R171C RIPK2 [2] = target: T2, R171C RIPK2 (Homo sapiens, UniProt O43353, R171C); experiment: in vitro enzyme inhibition, % inhibition at […]; conditions: 5 µM
[3] = target: T1, receptor-interacting protein kinase 2 (RIPK2); experiment: in vitro enzyme inhibition, % inhibition at […]; conditions: 5 µM
[4] = target: T1, receptor-interacting protein kinase 2 (RIPK2); experiment: in vitro RIPK2 enzyme inhibition
R171C RIPK2 [5] = target: T2, R171C RIPK2; experiment: in vitro RIPK2 enzyme inhibition
[6] = target: T1, receptor-interacting protein kinase 2 (RIPK2); experiment: X-ray co-crystal structure ([…] Å); in vitro enzyme inhibition IC50
[7] = target: T1, receptor-interacting protein kinase 2 (RIPK2); experiment: in vitro enzyme inhibition, % inhibition at […]; conditions: 1 µM
R171C RIPK2 [8] = target: T2, R171C RIPK2; experiment: in vitro enzyme inhibition, % inhibition at […]; conditions: 1 µM

T1 sequence (O43353 whole entry): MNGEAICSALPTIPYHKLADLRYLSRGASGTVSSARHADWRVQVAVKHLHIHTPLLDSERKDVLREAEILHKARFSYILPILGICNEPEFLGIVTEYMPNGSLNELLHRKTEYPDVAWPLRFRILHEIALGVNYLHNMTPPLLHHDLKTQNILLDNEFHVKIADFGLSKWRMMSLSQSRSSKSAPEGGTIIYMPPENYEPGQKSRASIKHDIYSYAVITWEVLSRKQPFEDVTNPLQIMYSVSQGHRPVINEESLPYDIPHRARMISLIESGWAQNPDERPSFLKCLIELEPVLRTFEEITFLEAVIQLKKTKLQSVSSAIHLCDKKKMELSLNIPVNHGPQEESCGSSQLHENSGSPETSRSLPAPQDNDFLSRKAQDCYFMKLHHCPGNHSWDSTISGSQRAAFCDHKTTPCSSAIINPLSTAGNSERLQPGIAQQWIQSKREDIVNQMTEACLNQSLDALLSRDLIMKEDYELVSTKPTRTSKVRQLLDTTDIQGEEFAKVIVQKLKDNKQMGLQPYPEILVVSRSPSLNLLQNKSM
T2 sequence (O43353 whole entry R171C): as the sequence (O43353 whole entry) above, with R171C counted along it

In the case of `CNC(=O)c1cc(Oc2ccc(NC(=O)Nc3cccc(CC#N)c3)c(F)c2)ccn1` [CSR25], the “% Inhibition / RIPK2 WT” value [1] is reported as 43.

For `CNC(=O)c1cc(Oc2ccc(NC(=O)Nc3cccc(C(C)(C)C(=O)O)c3)c(F)c2)ccn1` [CSR29], the “% Inhibition / R171C RIPK2” value (R171C RIPK2 [2]) was 67.

In the case of `CNC(=O)c1cc(Oc2ccc(NC(=O)Nc3cccc(CC(=O)OC)c3)c(F)c2)ccn1` [CSR30], the “% Inhibition / R171C RIPK2” value (R171C RIPK2 [2]) is reported as 76 and the “% Inhibition / RIPK2 WT” value [3] is reported as 69.

For `O=C(O)CSc1ccc(NC(=O)Nc2ccccc2F)cc1F` [CSR35F2], the IC50 [4] was 13.2 ± 1.7 µM.

In the case of `CNC(=O)c1cc(Oc2ccc(NC(=O)Nc3ccc(SCC(=O)O)c(F)c3)c(F)c2)ccn1` [CSR35], the IC50 (R171C RIPK2 [5]) is reported as 4.87 ± 0.96 µM and the IC50 [6] is reported as 2.26 ± 0.11 µM.

For `CNC(=O)c1cc(Oc2ccc(NC(=O)Nc3ccc(SCC(=O)OC)c(F)c3)c(F)c2)ccn1` [CSR36], the “% Inhibition / RIPK2 WT” value [7] was 94 and the “% Inhibition / R171C RIPK2” value (R171C RIPK2 [8]) was 92.
